± gives the standard deviation of the averaged measurements.
What follows are sequences tested on MCF7 (assay: HRG-induced Akt activation (dPAkt = log2 pAkt/Akt HRG-stimulated minus log2 pAkt/Akt basal) (log2 ratio difference); higher = stronger HRG-induced Akt(T308) phosphorylation). Details: miRNA mimic concentration 10 nM; time after transfection 72 h; heregulin 10 ng/ml; stimulation time 1 h.
Summary of the method: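 MCF7 cells ([…], 96-well plates) carrying one of 879 miRNA mimics, transfected at 10 nM final with Lipofectamine RNAiMax in two biological replicates, were stimulated after 72 h with 10 ng/ml heregulin-beta1 for 1 h or left unstimulated. Phospho-Akt(T308) and total Akt in cells fixed with 4% PFA were read by In-Cell Western on an Odyssey and corrected for column-wise fixation decay to give log2(pAkt/Akt). Heregulin-induced Akt activation is the replicate mean of stimulated minus unstimulated ratios.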

Sequence	HRG-induced Akt activation (log2)
GGUGCAGUGCUGCAUCUCUGGU	1.28 ± 0.0016
UCAGCUGGCCCUCAUUUC	1.12 ± 0.66
ACCGUGCAAAGGUAGCAUA	1.89 ± 0.11
CAAUCAGCAAGUAUACUGCCCU	1.93 ± 0.24
ACGUUGGCUCUGGUGGUG	1.17 ± 0.014
UGGGUUCCUGGCAUGCUGAUUU	1.27 ± 0.13
UUUUGCGAUGUGUUCCUAAUAU	1.67 ± 0.12
GCCCUCCGCCCGUGCACCCCG	1.17 ± 0.14
GAAAGUGCUUCCUUUUAGAGGC	0.832 ± 0.68
GUGUUAAUUAAACCUCUAUUUAC	1.76 ± 0.034
UCCAGUACCACGUGUCAGGGCCA	0.976 ± 0.31
UAGGACACAUGGUCUACUUCU	1.04 ± 0.19
CAAGCUCGUGUCUGUGGGUCCG	0.995 ± 0.35
UGAGGUAGUAGGUUGUAUAGUU	1.26 ± 0.07
AUGCACCUGGGCAAGGAUUCUG	1.77 ± 0.18
CCCAGUGUUCAGACUACCUGUUC	1.28 ± 0.6
CUUUCAGUCAGAUGUUUGCUGC	1.67 ± 0.24
UGAGGUAGUAAGUUGUAUUGUU	1.6 ± 0.43
GCGAGGACCCCUCGGGGUCUGAC	1.05 ± 0.48
UGGCAGUGUAUUGUUAGCUGGU	2.12 ± 0.35
ACUGGGGGCUUUCGGGCUCUGCGU	1.6 ± 0.11

Sequence	HRG-induced Akt activation (log2)
UUCCCUUUGUCAUCCUUCGCCU	1 ± 0.3
CUGGGAGGUGGAUGUUUACUUC	0.961 ± 0.055
AGGCAGCGGGGUGUAGUGGAUA	1.58 ± 0.27
GUUUGCACGGGUGGGCCUUGUCU	1.88 ± 0.072
CAAAGCGCUCCCCUUUAGAGGU	1.02 ± 0.045
CUCCUGAGCCAUUCUGAGCCUC	1.48 ± 0.25
GCGACCCACUCUUGGUUUCCA	1.8 ± 0.034
GGCGGAGGGAAGUAGGUCCGUUGGU	1.52 ± 0.058
CGGGGCAGCUCAGUACAGGAU	0.9798 ± 0.0068
AGCAGAAGCAGGGAGGUUCUCCCA	1.55 ± 0.054
UCUUUGGUUAUCUAGCUGUAUGA	1.96 ± 0.15
AAUGGAUUUUUGGAGCAGG	2.12 ± 0.2
CCUGGAAACACUGAGGUUGUG	1.61 ± 0.12
UCCAGUGCCCUCCUCUCC	1.131 ± 0.0093
UGUGCGCAGGGAGACCUCUCCC	0.835 ± 0.095
AAUCAUACACGGUUGACCUAUU	1.41 ± 0.42
AAGCCCUUACCCCAAAAAGUAU	1.73 ± 0.12
UCUCUGGAGGGAAGCACUUUCUG	1.33 ± 0.18
AGGCACGGUGUCAGCAGGC	1.2 ± 0.26
UGUCUACUACUGGAGACACUGG	2.12 ± 0.15

Reference: the supplement of paper PMC4314810
